Data reported in patent US20260297080A1, “BICYCLIC COMPOUNDS AS CDK INHIBITORS” (BeOne Medicines I GmbH, priority 2022, published 2026).
pIC50: −log10 of the molar value.

Legend:
CDK2/Cyclin E1 = CDK2/Cyclin E1 (Homo sapiens, UniProt P24941); test: CDK2/Cyclin E1 Biochemical Assay (TR-FRET), 0.060 mM ATP; settings: 0.15 μM Rb (Ser780)-biotin substrate, pH7.0, 60 min preincubation, 120 min reaction, room temperature
Summary of the method: (§1)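 IC50 was from a four-parameter logistic fit of the 665/620 nm TR-FRET ratio (Eu anti-pRb Ser780 mAb, streptavidin-XL665). Compound (0-10 μM) was preincubated 60 min with enzyme, then reacted 120 min at room temperature with 0.15 μM biotinylated Rb (Ser780) peptide. ATP was 0.015 mM for CDK1/Cyclin B1 and 0.060 mM for CDK2/Cyclin E1; buffer was HEPES pH7.0.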

CDK1/Cyclin B1 = CDK1/Cyclin B1 (Homo sapiens, UniProt P06493); test: CDK1/Cyclin B1 Biochemical Assay (TR-FRET), 0.015 mM ATP; settings: 0.15 μM Rb (Ser780)-biotin substrate, pH7.0, 60 min preincubation, 120 min reaction, room temperature
Sequence of CDK1/Cyclin B1 (P06493 whole entry): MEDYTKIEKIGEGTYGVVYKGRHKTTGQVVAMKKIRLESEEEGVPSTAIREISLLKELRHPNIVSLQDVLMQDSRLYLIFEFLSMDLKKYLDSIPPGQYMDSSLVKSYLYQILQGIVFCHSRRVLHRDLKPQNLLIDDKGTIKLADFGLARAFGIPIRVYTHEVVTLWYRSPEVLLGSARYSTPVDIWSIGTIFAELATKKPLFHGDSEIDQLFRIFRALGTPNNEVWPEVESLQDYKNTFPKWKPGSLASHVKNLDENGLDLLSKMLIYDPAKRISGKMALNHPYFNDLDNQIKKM
Sequence of CDK1/Cyclin B1 (P14635 whole entry partner): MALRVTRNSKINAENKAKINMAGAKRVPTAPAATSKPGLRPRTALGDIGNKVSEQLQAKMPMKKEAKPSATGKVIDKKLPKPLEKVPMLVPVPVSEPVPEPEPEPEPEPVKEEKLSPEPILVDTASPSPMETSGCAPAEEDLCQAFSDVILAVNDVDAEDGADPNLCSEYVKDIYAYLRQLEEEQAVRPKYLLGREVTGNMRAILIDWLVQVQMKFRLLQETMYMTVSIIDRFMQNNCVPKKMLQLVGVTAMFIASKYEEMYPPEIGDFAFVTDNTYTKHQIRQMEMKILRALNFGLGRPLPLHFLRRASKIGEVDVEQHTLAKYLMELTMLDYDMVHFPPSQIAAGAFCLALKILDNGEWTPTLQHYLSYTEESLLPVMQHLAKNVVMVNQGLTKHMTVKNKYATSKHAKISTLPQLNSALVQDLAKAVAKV
Summary of the method: as §1

Structure (SMILES) | pIC50 (CDK2/Cyclin E1) | pIC50 (CDK1/Cyclin B1)
COCC1(NC(=O)O[C@H]2CC[C@@H](c3cc(Nc4ccc5c(c4)CS(=O)(=O)N5C)n[nH]3)C2)CC1 (relative stereo) [Example 228, cis-3-(3-((1-methyl-2,2-dioxido-1,3-dihydrobenzo[c]isothiazol-5-yl)amino)-1H-pyrazol-5-yl)cyclopentyl(1-(methoxymethyl)cyclopropyl)carbamate] | 8.03 | 6.91
CC1(NC(=O)O[C@H]2CC[C@@H](c3cc(Nc4ccc5c(c4Cl)CNS5(=O)=O)n[nH]3)C2)CC1 (single isomer, unassigned) [Example 40a, cis-3-(3-((4-chloro-1,1-dioxido-2,3-dihydrobenzo[d]isothiazol-5-yl)amino)-1H-pyrazol-5-yl)cyclopentyl(1-methylcyclopropyl)carbamate] | 8.27 | 6.43
CN1c2ccc(Nc3cc([C@@H]4CC[C@H](OC(=O)NC5(C)COC5)C4)[nH]n3)c(F)c2CS1(=O)=O (single isomer, unassigned) [Example 332b, cis-3-(3-((4-fluoro-1-methyl-2,2-dioxido-1,3-dihydrobenzo[c]isothiazol-5-yl)amino)-1H-pyrazol-5-yl)cyclopentyl(3-methyloxetan-3-yl)carbamate] | 8.46 | 6.80
CC(C)NC(=O)O[C@H]1CC[C@@H](c2cc(Nc3ccc4c(c3)C(C)S(=O)(=O)N4)n[nH]2)C1 (single isomer, unassigned) [Example 384a, cis-3-(3-((3-methyl-2,2-dioxido-1,3-dihydrobenzo[c]isothiazol-5-yl)amino)-1H-pyrazol-5-yl)cyclopentyl isopropylcarbamate] | 9.10 | 7.66
CC1(NC(=O)O[C@H]2CC[C@@H](c3cc(Nc4ccc5c(c4F)CS(=O)(=O)N5CC(F)(F)F)n[nH]3)C2)CC1 (single isomer, unassigned) [Example 264a, cis-3-(3-((4-fluoro-2,2-dioxido-1-(2,2,2-trifluoroethyl)-1,3-dihydrobenzo[c]isothiazol-5-yl)amino)-1H-pyrazol-5-yl)cyclopentyl(1-methylcyclopropyl)carbamate] | 8.89 | 7.19
CN1c2ccc(Nc3cc([C@@H]4CC[C@H](OC(=O)NC(C)(C)C)C4)[nH]n3)cc2CS1(=O)=O [Example 391b] | 9.05 | 8.11
CC1(NC(=O)O[C@H]2CC[C@@H](c3cc(Nc4ccc5c(c4F)CS(=O)(=O)N5)n[nH]3)C2)CC1 (single isomer, unassigned) [Example 388b] | 8.89 | 7.68
CC1(NC(=O)O[C@H]2CC[C@@H](c3cc(Nc4ccc5c(c4F)CS(=O)(=O)N5C4CC4)n[nH]3)C2)CCOC1 (relative stereo) [Example 368, cis-3-(3-((1-cyclopropyl-4-fluoro-2,2-dioxido-1,3-dihydrobenzo[c]isothiazol-5-yl)amino)-1H-pyrazol-5-yl)cyclopentyl(3-methyltetrahydrofuran-3-yl)carbamate] | 8.92 | 7.02
CN1c2ccc(Nc3cc([C@@H]4CC[C@H](OC(=O)NC5(C)CCOC5)C4)[nH]n3)c(F)c2CS1(=O)=O (single isomer, unassigned) [Example 349b, cis-3-(3-((4-fluoro-1-methyl-2,2-dioxido-1,3-dihydrobenzo[c]isothiazol-5-yl)amino)-1H-pyrazol-5-yl)cyclopentyl(3-methyltetrahydrofuran-3-yl)carbamate] | 8.92 | 7.06
CC1(C)CCN1C(=O)O[C@H]1CC[C@@H](c2cc(Nc3ccc4c(c3F)CNS4(=O)=O)n[nH]2)C1 (relative stereo) [Example 155, cis-3-(3-((4-fluoro-1,1-dioxido-2,3-dihydrobenzo[d]isothiazol-5-yl)amino)-1H-pyrazol-5-yl)cyclopentyl 2,2-dimethylazetidine-1-carboxylate] | 8.89 | 7.89
CN1Cc2c(ccc(Nc3cc([C@@H]4CC[C@H](OC(=O)NC5COC5)C4)[nH]n3)c2F)S1(=O)=O (relative stereo) [Example 336, cis-3-(3-((4-fluoro-2-methyl-1,1-dioxido-2,3-dihydrobenzo[d]isothiazol-5-yl)amino)-1H-pyrazol-5-yl)cyclopentyl oxetan-3-ylcarbamate] | 7.01 | 5.83
CCCNC(=O)O[C@H]1CC[C@@H](c2cc(Nc3ccc4c(c3)CS(=O)(=O)N4)n[nH]2)C1 (single isomer, unassigned) [Example 195a, cis-3-(3-((2,2-dioxido-1,3-dihydrobenzo[c]isothiazol-5-yl)amino)-1H-pyrazol-5-yl)cyclopentyl propylcarbamate] | 7.92 | 7.14
CC1(NC(=O)O[C@H]2CC[C@@H](c3cc(Nc4ccc5c(c4Cl)CNS5(=O)=O)n[nH]3)C2)CC1 (racemic) [Example 40, cis-3-(3-((4-chloro-1,1-dioxido-2,3-dihydrobenzo[d]isothiazol-5-yl)amino)-1H-pyrazol-5-yl)cyclopentyl(1-methylcyclopropyl)carbamate] | 8.64 | 6.81
CN1Cc2c(ccc(Nc3cc([C@@H]4CC[C@H](OC(=O)NC5CCC(O)CC5)C4)[nH]n3)c2F)S1(=O)=O (single isomer, unassigned) [Example 167, cis-3-(3-((4-fluoro-2-methyl-1,1-dioxido-2,3-dihydrobenzo[d]isothiazol-5-yl)amino)-1H-pyrazol-5-yl)cyclopentyl(4-hydroxycyclohexyl)carbamate] | 8.04 | 6.29
[2H]C([2H])([2H])N1c2c(F)cc(Nc3cc([C@@H]4CC[C@H](OC(=O)N[C@@H](C)CC)C4)[nH]n3)cc2CS1(=O)=O (relative stereo) [Example 285, cis-3-(3-((7-fluoro-1-(methyl-d3)-2,2-dioxido-1,3-dihydrobenzo[c]isothiazol-5-yl)amino)-1H-pyrazol-5-yl)cyclopentyl((S)-sec-butyl)carbamate] | 7.92 | 6.71
CC[C@H](C)NC(=O)O[C@H]1CC[C@@H](c2cc(Nc3ccc4c(c3)CS(=O)(=O)N4)n[nH]2)C1 (single isomer, unassigned) [Example 323a] | 8.17 | 7.52

Now from value to compound:

pIC50 (CDK2/Cyclin E1) | pIC50 (CDK1/Cyclin B1) | Structure (SMILES)
8.82 | 6.84 | CN1c2ccc(Nc3cc([C@@H]4CC[C@H](OC(=O)NC(C)(C)CO)C4)[nH]n3)c(F)c2CS1(=O)=O (single isomer, unassigned) [Example 327a, cis-3-(3-((4-fluoro-1-methyl-2,2-dioxido-1,3-dihydrobenzo[c]isothiazol-5-yl)amino)-1H-pyrazol-5-yl)cyclopentyl(1-hydroxy-2-methylpropan-2-yl)carbamate]
8.14 | 6.50 | Cc1c(Nc2cc([C@@H]3CC[C@H](OC(=O)NC(C)C)C3)[nH]n2)ccc2c1CN(CCO)S2(=O)=O (relative stereo) [Example 37, cis-3-(3-((2-(2-hydroxyethyl)-4-methyl-1,1-dioxido-2,3-dihydrobenzo[d]isothiazol-5-yl)amino)-1H-pyrazol-5-yl)cyclopentyl isopropylcarbamate]
8.82 | 7.22 | CCCNC(=O)O[C@H]1CC[C@@H](c2cc(Nc3ccc4c(c3F)CNS4(=O)=O)n[nH]2)C1 (single isomer, unassigned) [Example 138b]
8.22 | 6.94 | CC(C)NC(=O)O[C@H]1CC[C@@H](c2cc(Nc3ccc4c(c3F)S(=O)(=O)N(CCO)C4)n[nH]2)C1 (relative stereo) [Example 192, cis-3-(3-((7-fluoro-2-(2-hydroxyethyl)-1,1-dioxido-2,3-dihydrobenzo[d]isothiazol-6-yl)amino)-1H-pyrazol-5-yl)cyclopentyl isopropylcarbamate]
7.82 | 5.93 | CC(C)NC(=O)O[C@H]1CC[C@@H](c2cc(Nc3ccc4c(c3F)CN(C3CCCC3)S4(=O)=O)n[nH]2)C1 (relative stereo) [Example 68, cis-3-(3-((2-cyclopentyl-4-fluoro-1,1-dioxido-2,3-dihydrobenzo[d]isothiazol-5-yl)amino-1H-pyrazol-5-yl)cyclopentyl isopropylcarbamate]
8.37 | 6.83 | CC(C)NC(=O)O[C@H]1CC[C@@H](c2cc(Nc3ccc4c(c3F)NS(=O)(=O)C4)n[nH]2)C1 (relative stereo) [Example 312, cis-3-(3-((7-fluoro-2,2-dioxido-1,3-dihydrobenzo[c]isothiazol-6-yl)amino)-1H-pyrazol-5-yl)cyclopentyl isopropylcarbamate]
8.32 | 6.59 | CC(C)NC(=O)O[C@H]1CC[C@@H](c2cc(Nc3ccc4c(c3F)S(=O)(=O)NC4)n[nH]2)C1 (single isomer, unassigned) [Example 186a, cis-3-(3-((7-fluoro-1,1-dioxido-2,3-dihydrobenzo[d]isothiazol-6-yl)amino)-1H-pyrazol-5-yl)cyclopentyl isopropylcarbamate]
8.59 | 6.66 | CC[C@H](C)NC(=O)O[C@H]1CC[C@@H](c2cc(Nc3ccc4c(c3F)CN(C)S4(=O)=O)n[nH]2)C1 (single isomer, unassigned) [Example 123b]
7.80 | 6.44 | CC(C)NC(=O)O[C@H]1CC[C@@H](c2cc(Nc3ccc4c(c3F)S(=O)(=O)N(C(C)C)C4)n[nH]2)C1 (relative stereo) [Example 193, cis-3-(3-((7-fluoro-2-isopropyl-1,1-dioxido-2,3-dihydrobenzo[d]isothiazol-6-yl)amino)-1H-pyrazol-5-yl)cyclopentyl isopropylcarbamate]
